Laboratory results published in PMC4316792, “The dehydrogenase region of the NADPH oxidase component Nox2 acts as a protein disulfide isomerase (PDI) resembling PDIA3 with a role in the binding of the activator protein p67^phox” (Frontiers in Chemistry, 2015).
Bridges are numbered along the chain shown (N, C = ends). The star is where a group is joined. Biotin = O=C1N[C@H]2[C@H](CS[C@H]2CCCCC(=O)*)N1

Key:
[1] = target: NADPH oxidase (macrophage membrane liposomes, cytochrome b558) (Cavia porcellus, UniProt H0UXC6); format: biochemical, guinea pig
[2] = PDI reductase activity, DE-GSSG reduction; format: biochemical; conditions: for PDI activity of isolated Nox2 peptides: DE-GSSG reduction over a wide concentration range
[3] = system: recombinant 6His-p67^phox; conditions: manuscript in preparation, cited from earlier work; for binding of p67phox to overlapping 15-mer peptides (peptide walking): ref Dahan and Pick; for binding of p67phox after introduction of intramolecular disulfide bond between C369 and C371 / binding of p67phox after reduction of the disulfide bond and alkylation of the reduced thiols: ref Fradin et al., [2011], [2012], Pick, Fradin and Pick
Description: The cytosolic segment of Nox2 is also known as the dehydrogenase region (DHR) by virtue of the fact that it contains the NADPH- and FAD-binding sites and is homologous to the prokaryotic protein ferredoxin-NADP^+ reductase. The DHR comprises binding sites for p47^phox and Rac but, so far, there is no solid evidence for the identity of the binding site(s) for p67^phox. We approached this question by applying the “peptide walking” methodology (Joseph and Pick, [1995]; Dahan et al., [2012]; Dahan and Pick, [2012]). […] An important observation was that enhanced binding of p67^phox was evident only when the disulfide bond was established between two non-adjacent cysteines and between cysteines present in the same peptide; when the CGC tria ...

p67^phox(1–212) [4] = assay: Peptide–protein binding assay, p67phox(1–212); conditions: native (non-disulfide) peptide
[5] = system: recombinant 6His-p67^phox; assay: Peptide–protein binding assay / peptide walking, p67phox; conditions: statement of Results section
p67^phox(1–526) [6] = assay: Peptide–protein binding assay, p67phox(1–526); conditions: native (non-disulfide) peptide
NADPH oxidase = system: NADPH oxidase; design: method as in 8 sources, one per row (each row's own in cited_ref): ref Shpungin et al., [1989] ||| ref Bellavite et al., [1983]; Gabig and Lefker, [1984] ||| ref Pick et al., [1987] ||| ref Le Cabec and Maridonneau-Parini, [1995] ||| ref Nishida et al., [2005] ||| ...; conditions: ref Paes et al., [2011], cited from earlier work
oxidized insulin = assay: Insulin reduction (turbidimetric) assay; format: biochemical; conditions: recombinant PDI
p67^phox(1–526) [7] = assay: Effect of thiol reagents on binding of p67phox(1–526) to Nox2 peptide 24; conditions: 1 h room temperature
p67^phox(1–212) [8] = target: T1, p67^phox(1–212) (UniProt P19878 1-212); assay: ELISA; peptide—protein binding assay as a1, with peptide 24 and the modified peptides, all in the reduced form, subjected to oxidation by 1 mM H2O2; conditions: both partners purified
T1 construct: contains four cysteines (40, 45, 121, 165); source: E. coli, purified (Nickel Sepharose); not shown: 6His, N-terminal, kept
T1 sequence (looked up): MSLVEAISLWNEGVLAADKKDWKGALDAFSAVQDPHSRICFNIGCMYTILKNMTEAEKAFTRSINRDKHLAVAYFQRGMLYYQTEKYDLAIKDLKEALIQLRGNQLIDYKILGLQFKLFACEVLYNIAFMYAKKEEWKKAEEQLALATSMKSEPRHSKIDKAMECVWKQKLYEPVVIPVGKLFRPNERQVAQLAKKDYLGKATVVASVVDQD

p67^phox(1–212) [9] = assay: Protein–protein binding assay, p67phox(1–212); conditions: homodimers, 0.5 μM, p67phox coated at 0.5 μM; one characteristic experiment (Figure 5B)
p67^phox(1–526) [10] = assay: Protein–protein binding assay, p67phox(1–526); conditions: homodimers, 0.5 μM, p67phox coated at 0.5 μM; one characteristic experiment (Figure 5A)

16F16
inhibition of oxidase activation, in words [1]: Lack of an inhibitory effect

NC(=O)C1=CN([C@@H]2O[C@H](COP(=O)(O)OP(=O)(O)OC[C@H]3O[C@@H](n4cnc5c(N)ncnc54)[C@H](OP(=O)(O)O)[C@@H]3O)[C@@H](O)[C@H]2O)C=CC1 [NADPH]
replacement of DTT in the DE-GSSG reduction assay ([2]; up to 125 μM): could not be replaced

IVGDWTEGLFNACGC [peptide 24, 15-mer Nox2 peptide, residues 357–371, CGC triad at C-terminus]
binding of p67phox to overlapping 15-mer peptides (peptide walking) [3]: binds preferentially | binding of p67phox after introduction of intramolecular disulfide bond between C369 and C371 [3]: marked increase | binding of p67phox after reduction of the disulfide bond and alkylation of the reduced thiols [3]: totally abolished | binding of p67phox(1–212) (p67^phox(1–212) [4]): low affinity | increase in binding of p67phox on introduction of intramolecular disulfide bond linking C369 and C371 [5]: marked increase | binding of p67phox(1–526) (p67^phox(1–526) [6]): low affinity | PDI activity of isolated Nox2 peptides [2]: No PDI activity

reduced PDI: exogenous reduced PDI
effect of exogenous PDI on oxidase activation in vitro (NADPH oxidase): diminish

peptide 28: 15-mer Nox2 peptide, residues 369–383, CGC triad at N-terminus (CGCDKQEFQDAWKLP; UniProt P04839 369-383, looked up, fragment)
binding of p67phox to overlapping 15-mer peptides (peptide walking) [3]: binds preferentially | binding of p67phox after introduction of intramolecular disulfide bond between C369 and C371 [3]: marked increase | binding of p67phox after reduction of the disulfide bond and alkylation of the reduced thiols [3]: totally abolished | binding of p67phox(1–212) (p67^phox(1–212) [4]): low affinity | increase in binding of p67phox on introduction of intramolecular disulfide bond linking C369 and C371 [5]: marked increase | binding of p67phox(1–526) (p67^phox(1–526) [6]): low affinity | PDI activity of isolated Nox2 peptides [2]: No PDI activity

oxidized PDI: exogenous oxidized PDI
effect of exogenous PDI on oxidase activation in vitro (NADPH oxidase): enhance

PDIA1: Recombinant PDI A1 (human), made in E. coli [reference compound]
concentration down to which activity could be measured in insulin reduction assay (oxidized insulin): 10 nM | Vmax, PDI reductase activity (Figure 7C,D) ([2]; 10 nM, DE-GSSG 0.8 μM, DTT 12.5 μM, pH 7.0, 24°C, mean ± SEM of 4 (PDIA1), 3 (PDIA3) experiments): 37,303 ± 1279 | reductase activity relative to NusA-Nox2(357–570) ([2]; extrapolation of Vmax at 10 nM PDI to Vmax with 1 μM NusA-Nox2(357–570)): about 75 times

CN(C)C(=O)/N=N/C(=O)N(C)C [diamide]
effect of pretreatment of p67phox on low affinity binding to native form of peptide 24 (p67^phox(1–526) [7]; NEM 0.1 mM or diamide 5 mM, three experiments (Figure 2A,B)): suppressed | effect of diamide pretreatment of p67phox on binding to peptide 24 in the disulfide form (p67^phox(1–526) [7]; p67^phox(1–526) 1.5 μM, diamide 5 mM, three experiments (Figure 2B)): totally abolished

B1: Nox2 peptide 24 (357–371) with an intramolecular disulfide bond between C369 and C371 (peptide)
peptide: Biotin-SGSGIVGDWTEGLFNACGC-NH2
modifications: disulfide 17-19
SMILES: CC[C@H](C)[C@H](NC(=O)CNC(=O)[C@H](CO)NC(=O)CNC(=O)[C@H](CO)NC(=O)CCCC[C@@H]1SC[C@@H]2NC(=O)N[C@@H]21)C(=O)N[C@H](C(=O)NCC(=O)N[C@@H](CC(=O)O)C(=O)N[C@@H](Cc1c[nH]c2ccccc12)C(=O)N[C@H](C(=O)N[C@@H](CCC(=O)O)C(=O)NCC(=O)N[C@@H](CC(C)C)C(=O)N[C@@H](Cc1ccccc1)C(=O)N[C@@H](CC(N)=O)C(=O)N[C@@H](C)C(=O)N[C@H]1CSSC[C@@H](C(N)=O)NC(=O)CNC1=O)[C@@H](C)O)C(C)C
notes: spacer between the N-terminal biotin and the peptide, printed as Ser-Gly-Ser-Gly; also called 24N CGC S-S; 24N S-S; source: synthetic peptide (Mimotopes or Bachem), synthesized in the disulfide form; also made from the reduced peptide by oxidation with 1 mM H2O2; not shown: biotin, N-terminal, kept
binding result (p67^phox(1–212) [8]): binds

B2: Nox2 peptide 24 analog with CGC replaced by CysGlyHisCys, intramolecular disulfide bond between cysteines 369 and 372 (peptide)
peptide: Biotin-SGSGIVGDWTEGLFNACGHC-NH2
modifications: disulfide 17-20
SMILES: CC[C@H](C)[C@H](NC(=O)CNC(=O)[C@H](CO)NC(=O)CNC(=O)[C@H](CO)NC(=O)CCCC[C@@H]1SC[C@@H]2NC(=O)N[C@@H]21)C(=O)N[C@H](C(=O)NCC(=O)N[C@@H](CC(=O)O)C(=O)N[C@@H](Cc1c[nH]c2ccccc12)C(=O)N[C@H](C(=O)N[C@@H](CCC(=O)O)C(=O)NCC(=O)N[C@@H](CC(C)C)C(=O)N[C@@H](Cc1ccccc1)C(=O)N[C@@H](CC(N)=O)C(=O)N[C@@H](C)C(=O)N[C@H]1CSSC[C@@H](C(N)=O)NC(=O)[C@H](Cc2c[nH]cn2)NC(=O)CNC1=O)[C@@H](C)O)C(C)C
notes: spacer between the N-terminal biotin and the peptide, printed as Ser-Gly-Ser-Gly; also called 24N CGHC S-S (disulfide form); source: synthetic peptide (Mimotopes or Bachem), synthesized in the disulfide form; also made from the reduced peptide by oxidation with 1 mM H2O2; not shown: biotin, N-terminal, kept
binding result (p67^phox(1–212) [8]): binds

B3: Nox2 peptide 24 analog with CGC replaced by CysGlyProCys, intramolecular disulfide bond between cysteines 369 and 372 (peptide)
peptide: Biotin-SGSGIVGDWTEGLFNACGPC-NH2
modifications: disulfide 17-20
SMILES: CC[C@H](C)[C@H](NC(=O)CNC(=O)[C@H](CO)NC(=O)CNC(=O)[C@H](CO)NC(=O)CCCC[C@@H]1SC[C@@H]2NC(=O)N[C@@H]21)C(=O)N[C@H](C(=O)NCC(=O)N[C@@H](CC(=O)O)C(=O)N[C@@H](Cc1c[nH]c2ccccc12)C(=O)N[C@H](C(=O)N[C@@H](CCC(=O)O)C(=O)NCC(=O)N[C@@H](CC(C)C)C(=O)N[C@@H](Cc1ccccc1)C(=O)N[C@@H](CC(N)=O)C(=O)N[C@@H](C)C(=O)N[C@H]1CSSC[C@@H](C(N)=O)NC(=O)[C@@H]2CCCN2C(=O)CNC1=O)[C@@H](C)O)C(C)C
notes: spacer between the N-terminal biotin and the peptide, printed as Ser-Gly-Ser-Gly; also called 24N CGPC S-S (disulfide form); source: synthetic peptide (Mimotopes or Bachem), synthesized in the disulfide form; also made from the reduced peptide by oxidation with 1 mM H2O2; not shown: biotin, N-terminal, kept
binding result (p67^phox(1–212) [8]): binds

B4: NusA-Nox2(328–570): fusion protein of NusA and Nox2 residues 328–570 (protein)
chain: KCPKVSKLEWHPFTLTSAPEEDFFSIHIRIVGDWTEGLFNACGCDKQEFQDAWKLPKIAVDGPFGTASEDVFSYEVVMLVGAGIGVTPFASILKSVWYKYCNNATNLKLKKIYFYWLCRDTHAFEWFADLLQLLESQMQERNNAGFLSYNIYLTGWDESQANHFAVHHDEEKDVITGLKQKTLYGRPNWDNEFKTIASQHPNTRIGVFLCGPEALAETLSKQSISNSESGPRGVHFIFNKENF
modifications: left off: NusA (E. coli), N-terminal, kept | His tag (from the purification on Nickel Sepharose), end not stated, state not stated
binding of NusA-Nox2 to p67phox(1–212) (p67^phox(1–212) [9]): significant binding | binding of NusA-Nox2 to p67phox(1–526) (p67^phox(1–526) [10]): significant binding

B5: NusA-Nox2(372–570): fusion protein of NusA and Nox2 residues 372–570, lacks the CGC triad (protein)
chain: DKQEFQDAWKLPKIAVDGPFGTASEDVFSYEVVMLVGAGIGVTPFASILKSVWYKYCNNATNLKLKKIYFYWLCRDTHAFEWFADLLQLLESQMQERNNAGFLSYNIYLTGWDESQANHFAVHHDEEKDVITGLKQKTLYGRPNWDNEFKTIASQHPNTRIGVFLCGPEALAETLSKQSISNSESGPRGVHFIFNKENF
modifications: left off: NusA (E. coli), N-terminal, kept | His tag (from the purification on Nickel Sepharose), end not stated, state not stated
notes: fusion protein of NusA and Nox2 residues 372–570, lacks the CGC triad
loss of PDI activity ([2]; 2 μM (Figure 6C)): almost complete loss of PDI activity | Vmax, PDI reductase activity (Figure 6C) ([2]; 2 μM, DE-GSSG 800 nM, DTT 12.5 μM, one characteristic experiment, DTT only 26,248): 31,920 milli relative fluorescence units per min

B6: scrambled RNAse: ribonuclease A, with scrambled disulfide bonds from bovine pancreas (protein, UniProt P61823 27-150, looked up)
Ribonuclease pancreatic: KETAAAKFERQHMDSSTSAASSSNYCNQMMKSRNLTKDRCKPVNTFVHESLADVQAVCSQKNVACKNGQTNCYQSYSTMSITDCRETGSSKYPNCAYKTTQANKHIIVACEGNPYVPVHFDASV
modifications: scrambled disulfide bonds
notes: ribonuclease A, with scrambled disulfide bonds from bovine pancreas
IC50, NADPH oxidase activation [1]: could not be determined | inhibition of oxidase activation, in words [1]: ineffective | inhibition of oxidase activation, amphiphile-dependent cell-free system (NADPH oxidase; neutrophil membranes and recombinant cytosolic components): inhibit oxidase activation
